# Reference: PubChem BioAssay AID1872 (NMMLSC, 2009)
# Calls of active or inactive are those of the source. No rule for the calls is given here.
# Molecular target: Regulator of G-protein signaling 4 (Homo sapiens) (UniProt P49798)
# Experiment: small molecules altering RGS4 binding to Galphao – biochemical, bead-based flow cytometry, multiplex, dose response (AID 1872)
# Settings: for Ki: measured here: Ki for RGS4-Galphao
# Chain of Regulator of G-protein signaling 4 (Homo sapiens) (P49798 whole entry, looked up): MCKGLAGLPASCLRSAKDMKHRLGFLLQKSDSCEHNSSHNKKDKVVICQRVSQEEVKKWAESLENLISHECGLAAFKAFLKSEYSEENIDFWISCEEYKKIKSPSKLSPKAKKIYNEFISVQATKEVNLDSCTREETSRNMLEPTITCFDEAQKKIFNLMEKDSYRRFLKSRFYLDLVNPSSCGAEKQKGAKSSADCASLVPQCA
SMILES,Ki,EC50
COc1ccc(OC)c(CCNC(=O)Cn2sc3nc(C)cc(C)c3c2=O)c1,5.6 µM,–
O=C1C(Cl)=C(N2CCCCC2)C(=O)C(Cl)=C1c1cnc(N2CCCCC2)s1,1.55 µM,–
CCC(=O)NC1=C(Cl)C(=O)C(NC(=O)CC)=C(Cl)C1=O,4.61 µM,–
CN(C)c1ncc(C2=C(Cl)C(=O)C(N3CCCC3)=C(Cl)C2=O)s1,1.95 µM,–
COC(=O)CCC(=O)Nc1sc(C)c(C)c1C(N)=O,6.49 µM,–
O=C(COc1ccccc1C(=O)N/N=C\c1ccc(O)c(O)c1)N/N=C/c1ccc(O)c(O)c1,3.24 µM,–
CN=c1scc(C)n1/N=C/c1ccc(O)c(O)c1O,12 µM,–
CC(C)Sc1nc2ccc(N3C(=O)C4CCCCC4C3=O)cc2s1 (configuration not stated),–,> 30 µM (inactive)
CCC(=O)NC(c1ccc(C)cc1)c1cc([N+](=O)[O-])c2cccnc2c1O (configuration not stated),10.1 µM,–
Nc1c(C(=O)NCC2CCCO2)sc2nc3c(c(-c4ccco4)c12)CC/C3=C\c1ccco1 (configuration not stated),2.77 µM,–
NS(=O)(=O)c1ccc(N/N=C/c2ccc(O)c(O)c2O)c([N+](=O)[O-])c1,3.03 µM,3.56 µM
O=c1[nH]c(=S)n(Cc2ccco2)c(O)c1C=NCc1cccs1,–,> 30 µM (inactive)
COc1ccc(C2=CC(=O)C=CC2=O)cc1,19.7 µM,–
CN1CCN(C2=C(Cl)C(=O)C(c3cnc(N4CCCCC4)s3)=C(Cl)C2=O)CC1,0.3 µM,–
CCOC(=O)N=Nc1c(O)n(C)c2ccccc12,–,> 30 µM (inactive)
CCNc1ccc2noc3c2c1C(=O)c1ccccc1-3,22.5 µM,–
COc1ccc(Br)cc1/C=N/Nc1cccc(C(=O)O)c1,–,> 30 µM (inactive)
CCN=c1scc(C)n1/N=C/c1ccc(O)c(O)c1O,21.5 µM,–

SMILES,Ki,EC50
O=C(O)C[C@@H]1C(=O)O[C@@H]2C(COC(=O)c3cc(O)c(O)c(O)c3)O[C@@H](OC(=O)c3cc(O)c(O)c(O)c3)[C@@H](OC(=O)c3cc(O)c(O)c4c3[C@H]1[C@H](O)C(=O)O4)[C@H]2OC(=O)c1cc(O)c(O)c(O)c1 (some centres not stated),0.88 µM,–
CCOC(=O)/C(C(=O)Nc1ccccc1Cl)=C1/NC(C)(C)Cc2ccccc21,–,inactive
CCN1/C(=C/C=C/C=C/c2sc3ccccc3[n+]2CC)Sc2ccccc21,2.9 µM,–
O=C1CCC(=O)N(O)CCCCCNC(=O)CCC(=O)N(O)CCCCCNC(=O)CCC(=O)N(O)CCCCCN1,2.2 µM,–
NS(=O)(=O)c1ccc(CNC(=O)/C=C/c2ccco2)cc1,7.78 µM,–
CCN(CC)S(=O)(=O)c1cccc(C(=O)N/N=C/c2ccc(O)c(O)c2O)c1,4.73 µM,–
O=C1OCC2OC(O)C(O)C(O)C2OC(=O)c2cc(O)c(O)c(O)c2-c2c(O)c(O)c3oc(=O)c4c(c(O)c(O)c5oc(=O)c2c3c54)-c2c1cc(O)c(O)c2O (configuration not stated),2.05 µM,–
O=C1CCCC2=C1C(c1cccs1)n1ncnc1N2 (configuration not stated),–,inactive
COCCCNC(=O)c1ccc2c3c(onc13)-c1ccccc1C2=O,2.62 µM,–
O=C(OCC1O[C@@H](OC(=O)c2cc(O)c(O)c(O)c2)[C@@H](OC(=O)c2cc(O)c(O)c(O)c2)[C@@H](OC(=O)c2cc(O)c(O)c(O)c2)[C@@H]1OC(=O)c1cc(O)c(O)c(O)c1)c1cc(O)c(O)c(O)c1 (some centres not stated),0.38 µM,–
O=C(Cc1csc(N2CCOCC2)n1)N/N=C/c1ccc(O)c(O)c1O,14.8 µM,–
CC1(C)OC(=O)C(=Cc2ccc(-c3ccc(S(N)(=O)=O)cc3)o2)C(=O)O1,8.26 µM,–
Cc1cc(Cl)ccc1N=c1ssnc1Cl,4.58 µM,–
CCOC(=O)C1=C(C)NC(C)=C(C(=O)OCCNC(=O)c2cccnc2)C1c1cccc([N+](=O)[O-])c1 (configuration not stated),–,> 30 µM (inactive)
CC(=O)N(O)CCCCCNC(=O)CCC(=O)N(O)CCCCCNC(=O)CCC(=O)N(O)CCCCCN,1.34 µM,–
CN(C)[C@@H]1C(=O)C(C(=O)NCN2CCCC2)=C(O)[C@@]2(O)C(=O)C3=C(O)c4c(O)cccc4[C@@](C)(O)C3CC12 (some centres not stated),10 µM,11.8 µM
O=C(O[C@@H]1OC2COC(=O)c3cc(O)c(O)c(O)c3-c3c(cc(O)c(O)c3O)C(=O)O[C@@H]([C@H]1O)[C@@H]2O)c1cc(O)c(O)c(O)c1,3.51 µM,–
